Measurements reported in US11655235B2, “Pyrrolidine and piperidine compounds” (YUHAN CORPORATION, priority 2019, dated 2023).
Where two headings read alike, the source gives them in different places.

Experiments:
Assay type in all cases: biochemical
[1] = molecular target: T1, recombinant human PREP (Homo sapiens, UniProt P48147); assay: PREP inhibition, fluorogenic substrate Z-Gly-Pro-AMC; conditions: Inhibitory Activity (IC50, nM) PREP
T1 construct: purchased R&D System
T1 sequence (P48147 1-710): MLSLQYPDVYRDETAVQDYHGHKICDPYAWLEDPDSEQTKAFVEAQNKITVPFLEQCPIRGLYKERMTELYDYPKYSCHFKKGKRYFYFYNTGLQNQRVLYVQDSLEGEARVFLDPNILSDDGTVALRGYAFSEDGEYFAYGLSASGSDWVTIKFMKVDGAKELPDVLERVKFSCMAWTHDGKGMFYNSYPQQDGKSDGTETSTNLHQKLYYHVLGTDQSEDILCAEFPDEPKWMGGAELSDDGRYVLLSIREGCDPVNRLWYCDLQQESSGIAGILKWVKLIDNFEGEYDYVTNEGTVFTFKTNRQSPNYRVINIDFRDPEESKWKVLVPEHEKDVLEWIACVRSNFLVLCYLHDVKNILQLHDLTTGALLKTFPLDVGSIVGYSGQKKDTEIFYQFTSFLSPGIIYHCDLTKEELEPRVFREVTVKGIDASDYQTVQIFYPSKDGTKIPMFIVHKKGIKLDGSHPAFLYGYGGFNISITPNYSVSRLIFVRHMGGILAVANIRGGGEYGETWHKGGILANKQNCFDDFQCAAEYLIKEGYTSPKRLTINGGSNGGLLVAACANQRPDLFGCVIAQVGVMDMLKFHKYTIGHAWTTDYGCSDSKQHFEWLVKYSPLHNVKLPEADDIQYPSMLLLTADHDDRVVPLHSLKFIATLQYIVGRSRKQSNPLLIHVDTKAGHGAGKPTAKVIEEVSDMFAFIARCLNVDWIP
Method in brief: (§1)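 Inhibitors are titrated in an 8-point series into the enzyme's assay buffer (DMSO no more than 0.5%). Substrate cleavage at 25 °C is followed by fluorescence, excitation 380 nm and emission 460 nm. IC50 values come from a four-variable logistic model.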

[2] = molecular target: T2, Recombinant human FAP (Homo sapiens, UniProt Q12884); assay: FAP inhibition, fluorogenic substrate Z-Gly-Pro-AMC
T2 construct: purchased R&D systems
T2 sequence (Q12884 1-760): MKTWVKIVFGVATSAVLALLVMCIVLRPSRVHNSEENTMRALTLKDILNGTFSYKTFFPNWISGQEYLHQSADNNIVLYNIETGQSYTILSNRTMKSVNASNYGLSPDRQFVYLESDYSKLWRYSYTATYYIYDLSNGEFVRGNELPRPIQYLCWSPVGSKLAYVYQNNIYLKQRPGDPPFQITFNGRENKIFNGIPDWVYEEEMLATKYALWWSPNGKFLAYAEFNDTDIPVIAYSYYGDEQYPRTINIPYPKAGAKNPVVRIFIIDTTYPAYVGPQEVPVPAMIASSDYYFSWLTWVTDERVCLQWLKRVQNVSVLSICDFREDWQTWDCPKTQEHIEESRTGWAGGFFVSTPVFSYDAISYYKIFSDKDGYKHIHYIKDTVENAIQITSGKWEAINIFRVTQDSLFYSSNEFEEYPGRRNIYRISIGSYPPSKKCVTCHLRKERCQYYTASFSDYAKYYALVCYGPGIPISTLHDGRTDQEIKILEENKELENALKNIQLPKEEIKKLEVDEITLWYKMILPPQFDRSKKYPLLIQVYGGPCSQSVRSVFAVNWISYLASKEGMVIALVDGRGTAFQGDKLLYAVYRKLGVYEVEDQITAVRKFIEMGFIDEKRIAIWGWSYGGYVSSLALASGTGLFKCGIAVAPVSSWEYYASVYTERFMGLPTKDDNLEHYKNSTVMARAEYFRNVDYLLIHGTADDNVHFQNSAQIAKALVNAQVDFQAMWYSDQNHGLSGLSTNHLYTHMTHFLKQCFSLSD
Method in brief: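 Eight-point compound dilutions (≤0.1% DMSO) were incubated at 25° C with 10 ng recombinant human FAP in Tris pH 7.5/1 M NaCl/BSA buffer and Z-Gly-Pro-AMC. Inhibition was taken as % drop in fluorescence rate (380/460 nm) against uninhibited control; IC50 came from a four-parameter logistic fit.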

[3] = molecular target: T3, recombinant human DPP7 (Homo sapiens, UniProt Q9UHL4); assay: DPP7 inhibition, fluorogenic substrate Lys-Pro-AMC
T3 construct: purchased R&D Systems
Method in brief: as §1

[4] = molecular target: T4, recombinant human DPP8 (Homo sapiens, UniProt Q6V1X1); assay: DPP8 inhibition, fluorogenic substrate Z-Ala-Pro-AMC
T4 construct: purchased PBS Bioscience
Method: The compounds according to the present technology were evaluated in terms of the inhibitory effect on the activity of dipeptidyl peptidases including FAP by using a substrate producing fluorescent substances upon enzymatic decomposition. The test was conducted at 25° C. to get a final reaction volume of 100 μL in a 96 black well plate. […] Briefly, the test compounds were dissolved in dimethyl sulfoxide (DMSO) at a concentration of 20 mM and then subjected to serial dilution, thereby creating an 8 point curve. As for the control group, a 6 point curve created by serial dilution of Talabostat in the same buffer solution was used. Fluorescence intensity was measured using a microplate reader (Flexstation3, Molecular Devices) under the wavelength condition exciting at 380 nm and reading the emission at 460 nm. The inhibitory effect of the test compounds was measured as a decrease (%) in the signal rate as compared to the control group without any inhibitor. Data was fixed to a logistic model with four variables and IC50 value was calculated using GraphPad Prism program. As for recombinant human DPP4 (R&D Systems), 25 mM tris (pH 8.0) buffer as a buffer solution and H-Gly-Pro-AMC (Bachem) as a substrate were used. As for recombinant human DPP7 (R&D Systems), 25 mM MES (pH 6.0) buffer as a buffer solution and Lys-Pro-AMC (Bachem) as a substrate were used. As for recombinant human DPP8 (PBS Bioscience), as a buffer solution, a 10 mM tris (pH 7.4) buffer comprising 10 mM of magnesium chloride and 0.05% of Tween 20, and Z-Ala-Pro-AMC (BPS Bioscience) as a substrate were used. As for recombinant human DPP9 (R&D Systems), a 25 mM tris (pH 8.0) buffer as a buffer solution and H-Gly-Pro-AMC (Bachem) as a substrate were used. As for recombinant human PREP (R&D System), as a buffer solution, a 25 mM tris (pH 7.5) buffer comprising 250 mM sodium chloride and 2.5 mM DTT (Dithiolthreitol), and Z-Gly-Pro-AMC (Bachem) as a substrate were used. The evaluation was made by using 10 ng of DPP4, PDD7, and PREP, 20 ng of DPP8, and 50 ng of DPP9 based on the final reaction. In the evaluation of DPP4, the test compounds were subjected to serial dilution in a buffer under the condition containing up to 0.1% of DMSO. In the evaluation of DPP7, DPP8, DPP9, and PREP, the test compounds were subjected to serial dilution in each buffer under the condition containing up to 0.5% of DMSO.

[5] = molecular target: T5, recombinant human DPP9 (Homo sapiens, UniProt Q86TI2); assay: DPP9 inhibition, fluorogenic substrate H-Gly-Pro-AMC
T5 construct: purchased R&D Systems
Method in brief: as §1

[6] = molecular target: T2, Recombinant human FAP; assay: FAP FRET assay, FGF21-sequence FRET peptide substrate; conditions: FRET peptide with human FGF21 sequence, 6 μM, 37° C.
Method in brief: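 FRET peptide bearing human FGF21 sequence (6 μM final) cleaved by 10 ng recombinant human FAP at 37° C in HEPES pH 7.2 buffer with NaCl, BSA and EDTA, DMSO up to 0.1%. Signal-rate decrease versus uninhibited control fitted to a four-variable logistic model for IC50.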

[7] = molecular target: DPP4 (Homo sapiens, UniProt P27487); assay: DPP4 inhibition, fluorogenic substrate H-Gly-Pro-AMC; parameters: purchased R&D Systems; conditions: recombinant human DPP4
[8] = 25° C., Z-Gly-Pro-AMC substrate
[9] = 25° C., Z-Ala-Pro-AMC substrate
[10] = 25° C., H-Gly-Pro-AMC substrate

DPP4, sequence (P27487 whole entry): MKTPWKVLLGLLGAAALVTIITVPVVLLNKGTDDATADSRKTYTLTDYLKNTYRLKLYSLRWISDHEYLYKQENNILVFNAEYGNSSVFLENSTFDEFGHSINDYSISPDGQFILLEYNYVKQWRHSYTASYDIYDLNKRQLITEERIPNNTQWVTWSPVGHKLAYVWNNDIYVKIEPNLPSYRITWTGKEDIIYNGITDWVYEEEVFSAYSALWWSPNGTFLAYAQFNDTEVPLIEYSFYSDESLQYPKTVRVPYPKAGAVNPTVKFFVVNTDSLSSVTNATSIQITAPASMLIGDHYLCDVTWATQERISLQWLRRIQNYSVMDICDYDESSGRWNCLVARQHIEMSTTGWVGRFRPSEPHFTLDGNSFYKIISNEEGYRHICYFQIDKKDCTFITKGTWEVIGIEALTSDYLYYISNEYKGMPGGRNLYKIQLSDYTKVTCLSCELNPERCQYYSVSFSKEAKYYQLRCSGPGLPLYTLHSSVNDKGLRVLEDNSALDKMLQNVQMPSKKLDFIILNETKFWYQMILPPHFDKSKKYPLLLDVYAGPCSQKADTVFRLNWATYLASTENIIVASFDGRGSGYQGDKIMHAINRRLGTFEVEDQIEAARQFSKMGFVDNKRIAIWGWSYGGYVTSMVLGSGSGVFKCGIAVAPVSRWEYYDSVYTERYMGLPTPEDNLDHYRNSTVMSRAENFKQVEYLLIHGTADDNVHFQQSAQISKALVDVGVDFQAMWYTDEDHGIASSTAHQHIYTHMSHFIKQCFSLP
T4 sequence (Q6V1X1 whole entry): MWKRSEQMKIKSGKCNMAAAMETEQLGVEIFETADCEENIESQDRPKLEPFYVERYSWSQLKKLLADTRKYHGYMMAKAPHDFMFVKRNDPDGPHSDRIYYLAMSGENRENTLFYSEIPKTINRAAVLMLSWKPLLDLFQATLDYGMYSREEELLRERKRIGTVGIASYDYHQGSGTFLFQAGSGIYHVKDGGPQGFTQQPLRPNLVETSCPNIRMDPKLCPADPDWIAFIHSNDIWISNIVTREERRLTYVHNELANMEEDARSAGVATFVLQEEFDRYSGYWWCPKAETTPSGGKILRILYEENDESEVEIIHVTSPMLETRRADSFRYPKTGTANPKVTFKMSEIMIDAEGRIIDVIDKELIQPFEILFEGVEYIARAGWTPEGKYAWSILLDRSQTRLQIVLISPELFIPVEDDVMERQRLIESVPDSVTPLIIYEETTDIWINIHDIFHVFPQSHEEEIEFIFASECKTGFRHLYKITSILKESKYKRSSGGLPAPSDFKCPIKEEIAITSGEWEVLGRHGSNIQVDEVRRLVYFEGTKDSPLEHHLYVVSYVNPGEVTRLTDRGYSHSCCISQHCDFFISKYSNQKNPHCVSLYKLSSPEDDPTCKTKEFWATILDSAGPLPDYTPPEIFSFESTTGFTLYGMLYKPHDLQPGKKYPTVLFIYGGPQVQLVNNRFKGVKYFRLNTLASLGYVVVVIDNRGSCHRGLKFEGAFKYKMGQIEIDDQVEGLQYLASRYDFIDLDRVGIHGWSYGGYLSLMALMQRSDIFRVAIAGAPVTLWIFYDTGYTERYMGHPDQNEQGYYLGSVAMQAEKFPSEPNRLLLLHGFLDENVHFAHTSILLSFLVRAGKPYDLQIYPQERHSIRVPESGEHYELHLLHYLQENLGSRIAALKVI
T5 sequence (Q86TI2 whole entry): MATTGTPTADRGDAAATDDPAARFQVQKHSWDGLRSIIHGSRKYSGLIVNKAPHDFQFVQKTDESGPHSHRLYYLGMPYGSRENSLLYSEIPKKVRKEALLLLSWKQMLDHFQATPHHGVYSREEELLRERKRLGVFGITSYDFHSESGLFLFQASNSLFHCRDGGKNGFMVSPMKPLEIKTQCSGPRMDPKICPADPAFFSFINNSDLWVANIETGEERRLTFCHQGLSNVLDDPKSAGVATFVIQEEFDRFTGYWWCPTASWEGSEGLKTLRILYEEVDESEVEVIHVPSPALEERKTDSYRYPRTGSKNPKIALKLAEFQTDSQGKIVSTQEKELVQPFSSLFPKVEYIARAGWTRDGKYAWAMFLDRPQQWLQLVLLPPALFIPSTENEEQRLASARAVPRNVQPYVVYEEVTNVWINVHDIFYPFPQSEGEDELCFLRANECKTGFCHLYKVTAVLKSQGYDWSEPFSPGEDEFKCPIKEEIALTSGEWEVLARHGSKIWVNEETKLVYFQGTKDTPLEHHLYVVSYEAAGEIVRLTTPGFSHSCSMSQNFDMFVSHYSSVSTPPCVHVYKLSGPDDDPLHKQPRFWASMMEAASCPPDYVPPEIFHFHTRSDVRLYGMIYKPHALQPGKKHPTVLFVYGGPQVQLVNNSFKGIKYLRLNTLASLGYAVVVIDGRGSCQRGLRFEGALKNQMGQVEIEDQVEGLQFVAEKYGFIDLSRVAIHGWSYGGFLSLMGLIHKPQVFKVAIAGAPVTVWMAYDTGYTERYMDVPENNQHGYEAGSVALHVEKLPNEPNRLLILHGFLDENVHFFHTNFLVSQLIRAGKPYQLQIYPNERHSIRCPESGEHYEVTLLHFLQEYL

IC50 [1, 8] [nM] | IC50 [2, 8] [µM] | IC50 [3] [µM] | IC50 [4, 9] [µM] | IC50 [5, 10] [µM] | IC50 ([1]; recombinant human PREP) [nM] | IC50 ([3]; recombinant human DPP7) [µM] | IC50 [6] [µM] | IC50 ([5]; recombinant human DPP9) [µM] | IC50 [7] [µM] | IC50 ([2]; recombinant human FAP, substrate Z-Gly-Pro-AMC) [µM] | IC50 ([4]; recombinant human DPP8) [µM] | SMILES
7970 | 0.0248 | 3.7 | ≥ 100 | ≥ 100 |  |  |  |  |  |  |  | CN(c1cnc2ccccc2c1)[C@@H]1CCN(CC(=O)N2CCC[C@H]2C#N)C1 [Example 138, (2S)-1-[2-[(3R)-3-[methyl(3-quinolyl)amino]pyrrolidin-1-yl]acetyl]pyrrolidine-2-carbonitrile]
5020 | 0.0167 | 13 | ≥ 100 | 89 |  |  |  |  |  |  |  | CN(c1cccc2ncccc12)[C@@H]1CCN(CC(=O)N2CCC[C@H]2C#N)C1 [Example 139, (2S)-1-[2-[(3R)-3-[methyl(5-quinolyl)amino]pyrrolidin-1-yl]acetyl]pyrrolidine-2-carbonitrile]
4260 | 0.0157 | 1.4 | ≥ 100 | 32.6 |  |  |  |  |  |  |  | CN(c1ccc2ncccc2c1)[C@@H]1CCN(CC(=O)N2CCC[C@H]2C#N)C1 [Example 140, (2S)-1-[2-[(3R)-3-[methyl(6-quinolyl)amino]pyrrolidin-1-yl]acetyl]pyrrolidine-2-carbonitrile]
4510 | 0.0026 | 4.99 | ≥ 100 | 71 |  |  |  |  |  |  |  | CN(c1cnc2ccccc2c1)[C@H]1CCN(CC(=O)N2CCC[C@H]2C#N)C1 [Example 142, (2S)-1-[2-[(3S)-3-[methyl(3-quinolyl)amino]pyrrolidin-1-yl]acetyl]pyrrolidine-2-carbonitrile]
3360 | 0.006 | 19.3 | 85 | 23.8 |  |  |  |  |  |  |  | CN(c1cccc2ncccc12)[C@H]1CCN(CC(=O)N2CCC[C@H]2C#N)C1 [Example 144, (2S)-1-[2-[(3S)-3-[methyl(5-quinolyl)amino]pyrrolidin-1-yl]acetyl]pyrrolidine-2-carbonitrile]
2690 | 0.0027 | 2.03 | 19.1 | 16.8 |  |  |  |  |  |  |  | CN(c1ccc2ncccc2c1)[C@H]1CCN(CC(=O)N2CCC[C@H]2C#N)C1 [Example 145, (2S)-1-[2-[(3S)-3-[methyl(6-quinolyl)amino]pyrrolidin-1-yl]acetyl]pyrrolidine-2-carbonitrile]
4590 | 0.0066 | 0.916 | ≥ 100 | ≥ 100 |  |  |  |  |  |  |  | CN(c1ccc2cccnc2c1)[C@H]1CCN(CC(=O)N2CCC[C@H]2C#N)C1 [Example 146, (2S)-1-[2-[(3S)-3-[methyl(7-quinolyl)amino]pyrrolidin-1-yl]acetyl]pyrrolidine-2-carbonitrile]
 |  |  |  |  | 1770 | 0.875 | 0.0031 | 7.42 | 16.4 |  |  | N#C[C@@H]1CCCN1C(=O)CN1CCC(Nc2ccc(C(=O)Nc3ccccc3)c3ncccc23)CC1 [Example 396, 5-[[1-[2-oxo-2-[(2S)-2-cyanopyrrolidin-1-yl]ethyl]-4-piperidyl]amino]-N-phenyl-quinoline-8-carboxamide]
 |  |  |  |  | 1630 | 0.0626 | 0.0075 | 1.86 | 1.32 |  |  | CC(=O)Nc1ccc(NC2CCN(CC(=O)N3C[C@@H](F)C[C@H]3C#N)CC2)c2cccnc12 [Example 409, N-[5-[[1-[2-oxo-2-[(2S,4S)-2-cyano-4-fluoro-pyrrolidin-1-yl]ethyl]-4-piperidyl]amino]-8-quinolyl]acetamide]
 |  |  |  |  |  | 3.89 |  | 48.9 | > 10 | 0.0023 | 13.1 | COc1ccc2nc(C)cc(OC3CCN(CC(=O)N4C[C@@H](F)C[C@H]4C#N)CC3)c2c1 [Example 424, (2S,4S)-4-fluoro-1-[2-[4-[(6-methoxy-2-methyl-4-quinolyl)oxy]-1-piperidyl]acetyl]pyrrolidine-2-carbonitrile]
 |  |  |  |  | 1330 | 2.15 | 0.007 | 33.8 | 7.24 |  |  | N#C[C@@H]1C[C@H](F)CN1C(=O)CN1CCC(Oc2cccc3ncccc23)CC1 [Example 425, (2S,4S)-4-fluoro-1-[2-[4-(5-quinolyloxy)-1-piperidyl]acetyl]pyrrolidine-2-carbonitrile]
 |  |  |  |  | 10800 | 9.4 | 0.0039 | ≥ 100 | 54.8 |  |  | COc1ccc2nccc(OC3CCN(CC(=O)N4CCC[C@H]4C#N)CC3)c2c1 [Example 426, (2S)-1-[2-[4-[(6-methoxy-4-quinolyl)oxy]-1-piperidyl]acetyl]pyrrolidine-2-carbonitrile]
